Measured values as given in paper PMC4055595, “Pharmacokinetic Compatibility of Ginsenosides and Schisandra Lignans in Shengmai-san: From the Perspective of P-Glycoprotein” (PLoS ONE, 2014).
Read-outs that look alike come from different tables or passages of the source.

Legend:
[1] = target: P-gp (MDR1) (Homo sapiens, UniProt P08183); test: Transport of digoxin and ginsenosides across L-MDR1 cell monolayers (efflux ratio); type: in vitro ADME; conditions: human, read-out: Efflux ratio (Papp BL-AP / Papp AP-BL)
Method: (§1) LLC-PK1 cells, a cell line lacking P-gp, and the derived cell line L-MDR1, which over-express human MDR1-encoded P-gp, were grown in minimum essential medium with supplements at 37°C, 5% CO2, and 95% humidity. LLC-PK1 and L-MDR1 cells were seeded at a density of 12×10^6 cells per 150-cm^2 flask and grown for 7 days in medium 199 supplemented with 2 mM glutamine, 10% fetal bovine serum, 10 mg/500 mL of streptomycin, and 10,000 IU/500 mL of penicillin. To ensure a constant expression level of transport protein, L-MDR1 cells were grown in the presence of 640 nM vincristine. Cells were grown as monolayer on polycarbonate membrane filters (Transwell; Costar Corporation, Cambridge, MA) as outlined previously. Transepithelial resistance was measured in each well using a Millicell ERS ohmmeter (Millipore, Bedford, MA); wells registering a resistance of 200 ohms or greater, after correcting for the resistance obtained in control blank wells, were used in the transport experiments.
(§2) The LLC-PK1 and L-MDR1 cells were washed with warm Hank's balanced salt solution HBSS (pH 7.4) twice before transport experiment. HBSS containing verapamil (10 µM), SLE (2.0 and 10.0 µg/mL) or blank HBSS (control) was then loaded into both apical and basolateral chambers. After incubation at 37°C for 1.5 h, GE (100 µg/mL) was added to either the apical or basolateral side to evaluate the transport in absorptive and secretive directions, respectively. The cell monolayer was then incubated for another 2 h. Finally, the concentrations of ginsenosides were determined by LC/MS. All experiments were conducted in triplicate.
(§3) For the transport assay, the apparent permeability (P app, cm/s) in each direction (A→B and B→A) was calculated as follows, where A is the surface area of the membrane inserts (0.0804 cm^2), C 0 is the initial concentration of the compound applied in the donor compartment (2 µM), and △Q is the amount (micromoles) of compound transported over time △t (5 h = 18,000 s): [drawing 1]
(§4) The efflux ratio (ER) was a dimensionless number calculated as the ratio of the apparent permeability in the B→A direction divided by the apparent permeability in the A→B direction. [drawing 2]

[2] = target: human MDR1-encoded P-gp (L-MDR1 cells) (Homo sapiens, UniProt P08183); test: as above; type: in vitro ADME; conditions: for Effect of verapamil on efflux ratio / Papp / Effect of SLE on efflux ratio / transport: L-MDR1 cells; for Effect of verapamil on efflux ratio / Papp: 10 µM verapamil; for Effect of SLE on efflux ratio / transport: SLE 2.0 and 10.0 µg/mL; for P-gp substrate classification: summary of transport/uptake in LLC-PK1, L-MDR1 and Caco-2 cells with verapamil
Method: as §1, §2, §3, §4

[3] = system: LLC-PK1 cells (lacking P-gp); test: Transport of digoxin and ginsenosides across LLC-PK1 cell monolayers; type: in vitro ADME; conditions: for Effect of verapamil on transport (efflux ratio): 10 µM verapamil; for Effect of SLE on transport (AP→BL, BL→AP): SLE 2.0 and 10.0 µg/mL
Method: as §1, §2, §3, §4

[4] = system: LLC-PK1 cells (lacking P-gp); test: Uptake (intracellular accumulation) of digoxin and ginsenosides in LLC-PK1 cells; type: in vitro ADME; conditions: for Effect of verapamil on intracellular accumulation: 10 µM verapamil; for Effect of SLE on intracellular accumulation: SLE 2.0 and 10.0 µg/mL
Method: as §1
(§5) LLC-PK1 and L-MDR1 cells were incubated with SLE (2.0 and 10.0 µg/mL) or verapamil (10 µM) for 1.0 h, and then were washed to discard SLE or verapamil before adding 100 µg/mL of GE. The accumulation of GE lasted for 2 h, and the intracellular concentrations of ginsenosides were measured by LC/MS. All experiments were conducted in triplicate.

[5] = Transport of digoxin and ginsenosides across Caco-2 cell monolayer (efflux ratio); type: in vitro ADME, human; conditions: human
Method: (§6) Caco-2 cells were purchased from American Type Culture Collection (Manassas, VA), and were routinely cultured in Dulbecco's modified Eagle's medium supplemented with 10% fetal bovine serum, 1% nonessential amino acids, 1 mM sodium pyruvate, and 100 U/mL penicillin and streptomycin (Invitrogen, Carlsbad, CA). The cells were grown in an atmosphere of 5% CO2 at 37°C, and cell medium was changed every other day. Cells were seeded at a density of 4×10^4 cells per well in 24-well microporous polycarbonate insert filter plates (0.4-µm pore size) (Corning Costar plates; Corning Life Sciences, Lowell, MA) and grown for 15 days in Caco-2 growth medium. The medium was replaced every 3 to 4 days. Before running the assay, the culture medium was replaced by HBSS buffer supplemented with 10 mM Hepes and 20 mM glucose.
Caco-2 cells with a density of 1.2×10^5 cells/insert were seeded on a permeable polycarbonate insert (Millicell cell culture inserts, 0.4 µm pore size, 12 mm diameter; Millipore Corporation) in 24-well tissue culture plates and were used for the experiment 18 to 21 days after seeding. [^14C]Mannitol permeability and transepithelial electrical resistance measurements (Millicell-ERS epithelial volt-ohm meter; Millipore Corporation) were used to evaluate the integrity of Caco-2 cell monolayer. The monolayer used in transport studies had transepithelial electrical resistance values exceeding 600 Ω·cm^2, and the leakage of mannitol was less than 0.3% of the dose/h. Before transport initiation studies, the cell monolayer was first washed with warm HBSS (pH 7.4) twice. HBSS containing SLE (2.0 and 10.0 µg/mL) or 1% ethanol (control) was then loaded into both apical and basolateral chambers. After incubation at 37°C for 1.5 h, 100 µg/mL of GE was added to either the apical or basolateral side to evaluate the transport in absorptive and secretory directions, and the cell monolayer was incubated for another 2 h. 10 µM verapamil was used as a positive control inhibitor. At the designated time point, samples were taken from the receiving chamber for analysis. Ginsenosides were determined by LC-MS. All experiments were conducted in triplicate.
as §3, §4

[6] = system: Caco-2 cells; test: Uptake of digoxin and ginsenosides in Caco-2 cells; type: in vitro ADME, human; conditions: for Effect of verapamil on uptake: 10 µM verapamil; for Effect of SLE on intracellular concentration: SLE 2.0 and 10.0 µg/mL, P<0.01
Method: as §6
as §5, with “Caco-2” for “LLC-PK1 and L-MDR1”, “h. Then the cells” for “h, and then”, “washed with Hank's” for “washed”, “the addition” for “adding 100 µg/mL”, “GE (100 µg/mL).” for “GE.”, “ginsenosides” for “GE”

[7] = LLC-PK1, pH 7.4, L-MDR1 cells, control (absence of verapamil), GE 100 µg/mL, 2 h
[8] = LLC-PK1, pH 7.4, with verapamil 10 µM, L-MDR1 cells, presence of 10 µM verapamil
[9] = pH 7.4, Caco-2 cell monolayer, absence of inhibitor, GE 100 µg/mL, read-out: Efflux ratio

Sequence of P-gp (MDR1) (P08183 whole entry): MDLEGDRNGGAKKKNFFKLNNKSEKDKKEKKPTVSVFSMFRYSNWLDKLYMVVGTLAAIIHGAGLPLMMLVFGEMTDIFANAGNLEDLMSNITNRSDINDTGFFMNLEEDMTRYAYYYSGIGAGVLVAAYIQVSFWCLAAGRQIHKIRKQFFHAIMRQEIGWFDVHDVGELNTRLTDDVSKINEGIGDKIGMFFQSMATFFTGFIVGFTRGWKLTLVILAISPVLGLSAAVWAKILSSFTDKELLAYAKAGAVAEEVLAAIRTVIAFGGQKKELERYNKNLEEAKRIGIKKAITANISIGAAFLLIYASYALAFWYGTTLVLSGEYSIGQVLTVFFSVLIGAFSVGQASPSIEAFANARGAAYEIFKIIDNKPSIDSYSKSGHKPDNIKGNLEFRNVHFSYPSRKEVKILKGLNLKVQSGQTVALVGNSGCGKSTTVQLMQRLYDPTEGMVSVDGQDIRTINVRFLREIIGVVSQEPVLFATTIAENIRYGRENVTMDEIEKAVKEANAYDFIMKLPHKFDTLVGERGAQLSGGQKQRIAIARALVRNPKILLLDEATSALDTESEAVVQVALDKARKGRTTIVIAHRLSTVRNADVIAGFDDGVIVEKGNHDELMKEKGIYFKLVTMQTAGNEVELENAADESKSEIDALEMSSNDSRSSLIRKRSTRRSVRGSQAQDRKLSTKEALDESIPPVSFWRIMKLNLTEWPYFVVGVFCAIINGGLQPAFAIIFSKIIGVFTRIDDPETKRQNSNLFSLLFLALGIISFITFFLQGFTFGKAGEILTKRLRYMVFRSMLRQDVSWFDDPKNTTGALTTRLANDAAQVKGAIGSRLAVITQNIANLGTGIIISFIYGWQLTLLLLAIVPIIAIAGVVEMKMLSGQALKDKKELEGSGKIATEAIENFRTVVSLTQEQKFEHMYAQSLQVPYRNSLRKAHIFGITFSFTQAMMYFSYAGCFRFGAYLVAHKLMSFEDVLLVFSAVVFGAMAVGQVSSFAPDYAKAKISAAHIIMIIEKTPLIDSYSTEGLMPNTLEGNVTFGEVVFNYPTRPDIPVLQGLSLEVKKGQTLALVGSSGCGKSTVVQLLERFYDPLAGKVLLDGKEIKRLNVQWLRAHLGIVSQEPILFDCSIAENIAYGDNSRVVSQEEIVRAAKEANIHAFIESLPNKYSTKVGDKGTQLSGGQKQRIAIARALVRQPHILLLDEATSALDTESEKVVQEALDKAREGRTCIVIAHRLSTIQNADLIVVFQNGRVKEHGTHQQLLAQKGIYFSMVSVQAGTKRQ
Sequence of human MDR1-encoded P-gp (L-MDR1 cells) (P08183 whole entry): as above

efflux ratio at 2 h, 100 µg/mL [1, 7]	efflux ratio at 2 h, 100 µg/mL [1, 8]	Effect of verapamil on efflux ratio / Papp [2]	Effect of SLE on efflux ratio / transport [2]	P-gp substrate classification [2]	Effect of verapamil on transport (efflux ratio) [3]	Effect of SLE on transport (AP→BL, BL→AP) [3]	Effect of verapamil on intracellular accumulation [4]	Effect of SLE on intracellular accumulation [4]	efflux ratio at 2 h, 100 µg/mL [5, 9]	Effect of verapamil on uptake [6]	Effect of SLE on intracellular concentration [6]	efflux ratio at 2 h, 100 µg/mL ([5]; Caco-2, pH 7.4)	SMILES
> 3.5	1.57	significantly decrease of ER	significantly decreased	moderate P-gp substrates	No transport difference	No transport difference	no significant difference	no significant difference	3.77	significantly enhanced	concentration dependently increase		CC(C)=CCC[C@](C)(O[C@@H]1O[C@H](CO[C@@H]2O[C@H](CO)[C@@H](O)[C@H](O)[C@H]2O)[C@@H](O)[C@H](O)[C@H]1O)[C@H]1CC[C@]2(C)[C@@H]1[C@H](O)C[C@@H]1[C@@]3(C)CC[C@H](O[C@@H]4O[C@H](CO)[C@@H](O)[C@H](O)[C@H]4O[C@@H]4O[C@H](CO)[C@@H](O)[C@H](O)[C@H]4O)C(C)(C)[C@@H]3CC[C@]12C [Rb1, ginsenoside Rb1]
> 3.5	1.42	significantly decrease of ER	significantly decreased	moderate P-gp substrates	No transport difference	No transport difference	no significant difference	no significant difference				4.36	CC(C)=CCC[C@](C)(O[C@@H]1O[C@H](CO[C@@H]2O[C@@H](CO)[C@H](O)[C@H]2O)[C@@H](O)[C@H](O)[C@H]1O)[C@H]1CC[C@]2(C)[C@@H]1[C@H](O)C[C@@H]1[C@@]3(C)CC[C@H](O[C@@H]4O[C@H](CO)[C@@H](O)[C@H](O)[C@H]4O[C@@H]4O[C@H](CO)[C@@H](O)[C@H](O)[C@H]4O)C(C)(C)[C@@H]3CC[C@]12C [Rc, ginsenoside Rc]
	2.19	significantly decrease of ER	significantly decreased	moderate P-gp substrates	No transport difference	No transport difference	no significant difference	no significant difference	4.47	significantly enhanced	concentration dependently increase		CC(C)=CCC[C@](C)(O[C@@H]1O[C@H](CO)[C@@H](O)[C@H](O)[C@H]1O)[C@H]1CC[C@]2(C)[C@@H]1[C@H](O)C[C@@H]1[C@@]3(C)CC[C@H](O[C@@H]4O[C@H](CO)[C@@H](O)[C@H](O)[C@H]4O[C@@H]4O[C@H](CO)[C@@H](O)[C@H](O)[C@H]4O)C(C)(C)[C@@H]3CC[C@]12C [Rd, ginsenoside Rd]
26.2	8.23	significantly decrease of ER	significantly decreased		No transport difference	No transport difference	no significant difference	no significant difference	3.23	significantly enhanced			C[C@H]1O[C@@H](O[C@H]2[C@@H](O)C[C@H](O[C@H]3[C@@H](O)C[C@H](O[C@H]4CC[C@@]5(C)[C@H](CC[C@@H]6[C@@H]5C[C@@H](O)[C@]5(C)[C@@H](C7=CC(=O)OC7)CC[C@]65O)C4)O[C@@H]3C)O[C@@H]2C)C[C@H](O)[C@@H]1O [Digoxin, digoxin, reference compound]
				moderate P-gp substrates		No transport difference	no significant difference	no significant difference		significantly enhanced	concentration dependently increase		CC(C)=CCC[C@](C)(O[C@@H]1O[C@H](CO[C@@H]2OC[C@H](O)[C@H](O)[C@H]2O)[C@@H](O)[C@H](O)[C@H]1O)[C@H]1CC[C@]2(C)[C@@H]1[C@H](O)C[C@@H]1[C@@]3(C)CC[C@H](O[C@@H]4O[C@H](CO)[C@@H](O)[C@H](O)[C@H]4O[C@@H]4O[C@H](CO)[C@@H](O)[C@H](O)[C@H]4O)C(C)(C)[C@@H]3CC[C@]12C [Rb2, ginsenoside Rb2]
